Measured values as given in US20190225644A1, “MRNA CAP ANALOGS AND METHODS OF MRNA CAPPING” (ModernaTX, Inc., priority 2015, published 2019).
pIC50, pKd: −log10 of the molar value. Several values for one entry are separate records, joined by “and”; a condition that tells them apart may be missing. Equal values may be shown once. Read-outs that look alike come from different tables or passages of the source.

Key:
[1] = biological target: T7 RNA Polymerase (Escherichia phage T7, UniProt P00573); experiment: Cotranscriptional capping of hEPO mRNA by in vitro transcription (capping fraction); format: biochemical; settings: hEPO mRNA used in the in vivo assay
T7 RNA Polymerase, sequence (P00573 whole entry): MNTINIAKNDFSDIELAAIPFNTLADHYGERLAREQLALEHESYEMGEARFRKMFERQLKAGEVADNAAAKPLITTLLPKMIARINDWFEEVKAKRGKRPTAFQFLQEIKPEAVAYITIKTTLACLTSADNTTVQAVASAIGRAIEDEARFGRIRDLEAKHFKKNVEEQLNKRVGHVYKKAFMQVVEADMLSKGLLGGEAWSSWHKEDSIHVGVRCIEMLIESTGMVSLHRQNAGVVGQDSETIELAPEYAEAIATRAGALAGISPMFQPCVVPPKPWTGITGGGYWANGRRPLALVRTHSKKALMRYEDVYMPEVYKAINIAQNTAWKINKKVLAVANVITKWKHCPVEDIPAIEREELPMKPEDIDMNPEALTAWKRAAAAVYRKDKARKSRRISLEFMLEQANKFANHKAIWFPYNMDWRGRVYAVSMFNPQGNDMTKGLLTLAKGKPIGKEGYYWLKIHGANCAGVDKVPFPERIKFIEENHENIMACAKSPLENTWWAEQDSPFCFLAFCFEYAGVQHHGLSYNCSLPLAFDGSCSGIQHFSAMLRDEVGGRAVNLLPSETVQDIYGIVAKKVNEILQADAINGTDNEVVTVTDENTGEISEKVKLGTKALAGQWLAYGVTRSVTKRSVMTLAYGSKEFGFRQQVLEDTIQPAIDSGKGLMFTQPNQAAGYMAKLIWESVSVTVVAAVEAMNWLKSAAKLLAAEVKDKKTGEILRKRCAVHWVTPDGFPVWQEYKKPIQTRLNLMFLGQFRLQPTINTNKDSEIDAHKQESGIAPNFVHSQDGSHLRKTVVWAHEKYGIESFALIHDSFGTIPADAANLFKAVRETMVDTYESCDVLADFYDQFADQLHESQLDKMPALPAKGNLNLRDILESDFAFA
Procedure: The target mRNAs are prepared following IVT Reaction Protocol—Cotranscriptional capping described herein.
Ratio of A:U:C:G varies between 1:1:1:0.1 and 1:1:1:1, with the cap added in 10-fold excess to G. • 2. T7 RNA polymerase is added after other components except for water. • 3. Water is added for a total reaction volume of 100 uL. • 4. The mixture is mixed well and spun down in a benchtop centrifuge for 1 minute. • 5. The cocktail is incubated at 37 degrees for 4 hours. • 6. 2.5 uL of RNase free DNase I is added. • 7. The cocktail is incubated at 37° C. for 45 minutes.
As described in this Example, each of A, U, C, and G includes both unmodified and modified NTP. After the IVT reaction is complete, the mixture is cleaned using membrane purification (MegaClear or equivalent), and Oligo dT. Sample concentration is determined using a spectrophotometer, and degradation is quantitated using a bioanalyzer.

[2] = biological target: T1, eIF4E (Homo sapiens, UniProt P06730); experiment: biochemical
T1 sequence (P06730 32-217): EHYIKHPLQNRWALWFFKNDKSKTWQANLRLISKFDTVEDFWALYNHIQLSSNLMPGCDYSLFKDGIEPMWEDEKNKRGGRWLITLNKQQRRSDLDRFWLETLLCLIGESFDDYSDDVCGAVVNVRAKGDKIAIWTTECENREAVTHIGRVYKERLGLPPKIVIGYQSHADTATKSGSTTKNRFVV
Procedure: (§3) A sensor chip SA (GE Healthcare) is docked into a Biacore 3000 instrument.
(§4) Compound concentration series are injected over the immobilized protein serially in increasing concentration. Interaction models are fitted globally to the experimental traces, enabling determination of Kd or KD (binding affinity; unit: M) and possibly kon (on-rate, calculated from the association phase; unit: M^−1s^−1) and koff (off-rate, calculated from the dissociation phase; unit: s^−1).
(§5) A sensor chip (SAD5001 or SA) was docked into a Biacore 3000 instrument, washed with 50 mM NaOH, 1M NaCl. Protein eIF4E was diluted in running buffer (50 mM HEPES, 150 mM KCl, 10 mM MgCl2, 2 mM TCEP) to ˜1 μM. The diluted protein solution was injected for 300-600 seconds. Typical capture levels were 5000-6000 RU.
(§6) Test compounds were solubilized in ddH2O or DMSO to 10 mM. 100 μM stocks were prepared by 100-fold dilution in running buffer (50 mM HEPES, 150 mM KCl, 10 mM MgCl2). Assay was run with or without 1% DMSO.
(§7) Data were analyzed in GeneData. Curve fit was accepted or rejected by looking at the resulting sensorgrams and steady state fits.
(§8) Assay has been validated using running buffer with and without DMSO. […] Further, newly captured protein stabilizes slowly, leading to negative responses during the dissociation phase for compounds injected over newly captured protein.

[3] = tested on: HeLa Lysate; experiment: Cell free translation assay, mCitrine mRNA carrying the cap analogs; format: biochemical; settings: 5-methoxy uridine modRNA
Procedure: (§1) The in vitro translation assay was conducted with the HeLa 1-step coupled IVT kit (ThermoFisher Scientific, Waltham, Mass.) according to the manufacturer's instructions to assess performance of new cap analogs as free compounds or as an integral part of capped mRNA. Cap analogs with affinity to eIF4E protein may reduce protein synthesis rate in cell-free translation. Further, RNAs containing such cap analogs (“Cap-modRNA”) show different potency of protein synthesis in cell-free translation.
The modified RNAs (“modRNAs”) of eGFP and mCitrine-degron, harboring chemical modifications on either the CAP structures, selected ribose units and/or the bases, were diluted in sterile nuclease-free water to a final amount of 500 ng in 5 uL. This volume was added to 20 uL of freshly prepared HeLa Lysate. The in vitro translation reaction was done in a standard 96-well round bottom plate (Corning, Corning, N.Y.), covered with an self-adhesive fluorescence-compatible seal (BioRad, Hercules, Calif.) at 30° C. inside the plate reader Cytation 3 (BioTek, Winooski, Vt.).
The fluorescent signal per reaction increased over time and is considered proportional to the occurring protein synthesis. Each cell-free translation reaction was monitored for 120-180 min with the following settings: eGFP protein—ex. 485 nm, em. […] 545, gain 70 or 80. The height of the reading head was set to 1 mm above the plate and a reading speed of one per sample every 17 seconds. The results of modRNAs with various caps are illustrated in FIGS. 3A-3B.
(§2) Cell free translation assays were also conducted using modRNAs comprises 5-methoxy uridine, which replaces each uridine in the RNA sequence, except otherwise specified. The results are shown in FIGS. 5A-5B and 6A-6B, and Tables 12 and 13. Table 12 discloses the measured mCitrine levels after 3 hours of a cell-free translation assay.

[4] = biological target: T1, eIF4E; experiment: Binding affinities to eIF4E using surface plasmon resonance (SPR)
Procedure: as §3, §4, §5, §6, §7, §8

[5] = tested on: HeLa Lysate; experiment: Cell free translation assay, hEPO mRNA carrying the cap analogs; format: biochemical; settings: 5-methoxy uridine modRNA
Procedure: In FIG. 5A, “mod mRNA” refers to a modified mRNA comprising N1-methyl pseudouridine, which replaces each uridine in the RNA sequence. FIG. 5 B presents the results of a cell free translation assay using mRNAs carrying different cap analogs, normalized to capping and concentration of each capped mRNA (see also Table 13).
as §1, §2
Table 13 discloses the hEPO levels after 3 hours of a cell-free translation assay.

[6] = tested on: HeLa Lysate; experiment: Cap competition assay in kinetic cell free in vitro translation (free cap analogs); format: biochemical; settings: free cap analog 0-100 uM against Cap1-tipped eGFP modRNA, fluorescence plateau
Procedure: as §1
For competition assays, the total volume of the cell-free translation reaction was increased to 27.8 uL by addition of either water or diluted free CAP analogs in water. The stock concentration of the free CAP analogs was 1 mM. With two-fold dilutions in water, the concentration was reduced sequentially. […] The CAP analogs used in this study were either commercial products serving as reference material (TriLink, San Diego, Calif.) or compounds disclosed herein. It is hypothesized that the small molecule cap analogs interfere with the assembly of the “closed loop” in a Kd-dependent fashion.
After the fluorescent signal in cell-free translation reaction reached a stable plateau, absolute values thereof were transferred to a statistical analysis program (GraphPad Software, La Jolla, Calif.) and curve fitting or IC50 calculations were derived with settings according to the instructions of the manufacturer.
The results from the cap competition assays are illustrated in FIGS. 1A-1C and 2A-2D. In this study, each of the modRNAs used comprises 1-methyl-pseudouridine, which replaces each uridine in the RNA sequence and 5-methyl cytidine, which replaces each cytidine in the RNA sequence. Further, Table 11 includes the IC50 values of certain compounds of the disclosure.

[7] = biological target: T1, eIF4E
Procedure: as §3, §4, §5, §6, §7, §8

[8] = residence time as listed in Table 12
[9] = residence time as listed in Table 13

`CO[C@@H]1[C@H](O)[C@@H](COP(=O)(O)OP(=O)([S-])OP(=O)(O)OC[C@H]2O[C@@H](n3cnc4c(=O)[nH]c(N)nc43)[C@H](O)[C@@H]2O)O[C@H]1n1c[n+](C)c2c(=O)[nH]c(N)nc21` (single isomer, unassigned) [Compound 005-30 (D1)] was tested, and the “capping %/100” value [1] was 0.65 (D1) %/100, the pKd [2] was 6.15 and the “Ave norm (mCitrine levels after 3 hours of a cell-free translation assay)” value [3] was 0.44 (D1);. The “τ (s)” value [4, 8] was 15 (D1); s, the “τ (s)” value [4, 9] was 14.9 (D1) s and the “CFT (norm to conc. & capping & cap1), hEPO levels after 3 hours of a cell-free translation assay” value (shortened to “CFT … of a cell-free translation assay”) [5] was 0.79 (D1).
`C[n+]1cn(C2CN(Cc3ccccc3)CC(COP(=O)(O)OP(=O)([S-])OP(=O)(O)OC[C@H]3O[C@@H](n4cnc5c(=O)[nH]c(N)nc54)[C@H](O)[C@@H]3O)O2)c2nc(N)[nH]c(=O)c21` (stereo partly shown) [Compound 006-46] was tested, and the “Ave norm (mCitrine levels after 3 hours of a cell-free translation assay)” value [3] was 0.77 and the “τ” value [4, 8] was 3.4 s.
In the case of `CN1CC(COP(=O)(O)OP(=O)([O-])OP(=O)(O)OC[C@H]2O[C@@H](n3cnc4c(=O)[nH]c(N)nc43)[C@H](O)[C@@H]2O)OC(n2c[n+](CCOc3ccc(Cl)cc3)c3c(=O)[nH]c(N)nc32)C1` (stereo partly shown) [Compound 006-45], the “capping %/100” value [1] was 0.95 %/100, the “Ave norm (mCitrine levels after 3 hours of a cell-free translation assay)” value [3] was 0.74 and the “τ” value [4, 8] was 11.6 s. For the same molecule, the “τ” value [4, 9] was 11.6 s and the “CFT … of a cell-free translation assay” value [5] was 0.48.
For `C[n+]1cn([C@@H]2O[C@H](COP(=O)([O-])OP(=O)([O-])OP(=O)(O)OC[C@H]3O[C@@H](n4c[n+](C)c5c(=O)[nH]c(N)nc54)[C@H](O)[C@@H]3O)[C@@H](O)[C@H]2O)c2nc(N)[nH]c(=O)c21` [Compound 005-10], the “capping %/100” value [1] was 0.91 %/100, the pIC50 [6] was 4.85 and the koff [7] was 0.26 s⁻¹. The pKd [2] was 5.57 and 5.52, the “τ” value [4, 9] was 3.8 s and the “CFT … of a cell-free translation assay” value [5] was 0.83.
In the case of `Nc1nc2c(ncn2[C@@H]2O[C@H](COP(=O)(O)OP(=O)([O-])OP(=O)(O)OC[C@H]3O[C@@H](n4c[n+](CCOc5ccc(Cl)cc5)c5c(=O)[nH]c(N)nc54)[C@@H](O)[C@@H]3O)[C@@H](O)[C@H]2O)c(=O)[nH]1` [Compound 005-35], the “capping %/100” value [1] was 1 %/100, the “τ” value [4, 9] was 9.1 s and the “CFT … of a cell-free translation assay” value [5] was 1.02.
With `CO[C@@H]1[C@H](O)[C@@H](COP(=O)(O)OP(=O)([S-])OP(=O)(O)OC[C@H]2O[C@@H](n3cnc4c(=O)[nH]c(N)nc43)[C@H](O)[C@@H]2O)O[C@H]1n1c[n+](C)c2c(=O)[nH]c(N)nc21` (single isomer, unassigned) [Compound 005-30 (D2)] the “capping %/100” value [1] was 0.71 (D2) %/100, the pKd [2] was 5.96 and the “Ave norm (mCitrine levels after 3 hours of a cell-free translation assay)” value [3] was 0.84 (D2). The “τ (s)” value [4, 8] was 10 (D2) s, the “τ (s)” value [4, 9] was 10.4 (D2) s and the “CFT … of a cell-free translation assay” value [5] was 1.66 (D2).
For `BP(=O)(OP(=O)([O-])OC[C@H]1O[C@@H](n2c[n+](C)c3c(=O)[nH]c(N)nc32)[C@H](O)[C@@H]1O)OP(=O)([O-])OC[C@H]1O[C@@H](n2c[n+](C)c3c(=O)[nH]c(N)nc32)[C@H](O)[C@@H]1O` [Compound 005-4], the pIC50 [6] was 5.30, the pKd [2] was 6.00 to 6.15 and 6.00 and the “Ave norm (mCitrine levels after 3 hours of a cell-free translation assay)” value [3] was 0.24. The “τ” value [4] was 4.17 s and 4.2 s and the koff ([4]; read-out: koff (s^−1)) was 0.24 s⁻¹.
For `COc1ccc(CN2CC(COP(=O)([O-])OP(=O)(O)OP(=O)(O)OCC3OC(n4cnc5c(=O)[nH]c(N)nc54)C(O)C3O)OC(n3c[n+](C)c4c(=O)[nH]c(N)nc43)C2)cc1` (stereo not shown) [Compound 006-26], the “Ave norm (mCitrine levels after 3 hours of a cell-free translation assay)” value [3] was 0.50 and the “τ” value [4, 8] was 3.3 s.
For `CN(C)CCN1CC(COP(=O)(O)OP(=O)([O-])OP(=O)(O)OC[C@H]2O[C@@H](n3cnc4c(=O)[nH]c(N)nc43)[C@H](O)[C@@H]2O)OC(n2c[n+](C)c3c(=O)[nH]c(N)nc32)C1` (stereo partly shown) [Compound 006-44], the “Ave norm (mCitrine levels after 3 hours of a cell-free translation assay)” value [3] was 0.31 and the “τ” value [4, 8] was 0.8 s.
